Test results as given in PubChem BioAssay (NCI).
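Cultured in 96-well plates, cells were exposed to test compound for 48 hours across five concentrations. GI50: concentration for 50% inhibition of growth. TGI is the concentration that stops growth completely.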

Legend:
Assay in all cases: NCI tumour cell line growth inhibition, 48 h
HS 578T breast = test system: HS 578T breast
U251 CNS = test system: U251 CNS
MALME-3M melanoma = test system: MALME-3M melanoma
MDA-MB-435 = test system: MDA-MB-435
LOX IMVI melanoma = test system: LOX IMVI melanoma
UACC-257 melanoma = test system: UACC-257 melanoma
HT29 colon = test system: HT29 colon
HCC-2998 colon = test system: HCC-2998 colon
OVCAR-4 ovarian = test system: OVCAR-4 ovarian
SK-MEL-2 melanoma = test system: SK-MEL-2 melanoma
SNB-19 CNS = test system: SNB-19 CNS
M14 melanoma = test system: M14 melanoma
OVCAR-3 ovarian = test system: OVCAR-3 ovarian
DU-145 prostate = test system: DU-145 prostate
K-562 leukemia = test system: K-562 leukemia
HOP-62 NSCLC = test system: HOP-62 NSCLC
NCI-H522 lung = test system: NCI-H522 lung
NCI/ADR-RES ovarian = test system: NCI/ADR-RES ovarian
ACHN renal = test system: ACHN renal
SK-MEL-5 melanoma = test system: SK-MEL-5 melanoma
HCT-15 colon = test system: HCT-15 colon
786-0 renal = test system: 786-0 renal
MCF7 breast = test system: MCF7 breast
SF-539 CNS = test system: SF-539 CNS
HL-60(TB) leukemia = test system: HL-60(TB) leukemia
CAKI-1 renal = test system: CAKI-1 renal
NCI-H226 lung = test system: NCI-H226 lung
BT-549 breast = test system: BT-549 breast
OVCAR-5 ovarian = test system: OVCAR-5 ovarian
UO-31 renal = test system: UO-31 renal
SF-268 CNS = test system: SF-268 CNS
IGROV1 ovarian = test system: IGROV1 ovarian
HOP-92 NSCLC = test system: HOP-92 NSCLC
SR leukemia = test system: SR leukemia
NCI-H460 lung = test system: NCI-H460 lung
A498 renal = test system: A498 renal
CCRF-CEM leukemia = test system: CCRF-CEM leukemia
COLO 205 colon = test system: COLO 205 colon
NCI-H23 lung = test system: NCI-H23 lung
KM12 colon = test system: KM12 colon
PC-3 prostate = test system: PC-3 prostate
MDA-MB-231 breast = test system: MDA-MB-231 breast
SW-620 colon = test system: SW-620 colon
RPMI-8226 leukemia = test system: RPMI-8226 leukemia
A549 NSCLC = test system: A549 NSCLC
HCT-116 colon = test system: HCT-116 colon
OVCAR-8 ovarian = test system: OVCAR-8 ovarian
UACC-62 melanoma = test system: UACC-62 melanoma
SK-OV-3 ovarian = test system: SK-OV-3 ovarian
SF-295 CNS = test system: SF-295 CNS
MOLT-4 leukemia = test system: MOLT-4 leukemia
SN12C renal = test system: SN12C renal

Structure (SMILES): COc1ccc(-c2[nH]nc(N)c2-c2cc(OC)c(OC)c(OC)c2)cc1
- GI50 (HS 578T breast): 35.2 nM
- TGI (HS 578T breast): > 59000 nM
- GI50 (U251 CNS): 42.4 nM
- TGI (U251 CNS): > 100000 nM
- GI50 (MALME-3M melanoma): 33.7 nM
- TGI (MALME-3M melanoma): > 100000 nM
- GI50 (MDA-MB-435): 10.6 nM
- TGI (MDA-MB-435): 44.6 nM
- GI50 (LOX IMVI melanoma): 75.6 nM
- TGI (LOX IMVI melanoma): > 100000 nM
- GI50 (UACC-257 melanoma): 8030 nM
- TGI (UACC-257 melanoma): > 100000 nM
- GI50 (HT29 colon): 34.3 nM
- TGI (HT29 colon): 18200 nM
- GI50 (HCC-2998 colon): 39.6 nM
- TGI (HCC-2998 colon): 1400 nM
- GI50 (OVCAR-4 ovarian): 1620 nM
- TGI (OVCAR-4 ovarian): > 100000 nM
- GI50 (SK-MEL-2 melanoma): 37.9 nM
- TGI (SK-MEL-2 melanoma): > 100000 nM
- GI50 (SNB-19 CNS): 519 nM
- TGI (SNB-19 CNS): > 100000 nM
- GI50 (M14 melanoma): 28.1 nM
- TGI (M14 melanoma): 3460 nM
- GI50 (OVCAR-3 ovarian): 26.1 nM
- TGI (OVCAR-3 ovarian): 853 nM
- GI50 (DU-145 prostate): 35.4 nM
- TGI (DU-145 prostate): 1760 nM
- GI50 (K-562 leukemia): 31.5 nM
- TGI (K-562 leukemia): > 100000 nM
- GI50 (HOP-62 NSCLC): 44.2 nM
- TGI (HOP-62 NSCLC): > 100000 nM
- GI50 (NCI-H522 lung): < 13.3 nM
- TGI (NCI-H522 lung): 620 nM
- GI50 (NCI/ADR-RES ovarian): 28.3 nM
- GI50 (ACHN renal): 80.6 nM
- TGI (ACHN renal): > 100000 nM
- GI50 (SK-MEL-5 melanoma): 38.1 nM
- TGI (SK-MEL-5 melanoma): 725 nM
- GI50 (HCT-15 colon): 34.5 nM
- TGI (HCT-15 colon): > 100000 nM
- GI50 (786-0 renal): 66.3 nM
- TGI (786-0 renal): > 58300 nM
- GI50 (MCF7 breast): 30 nM
- TGI (MCF7 breast): > 100000 nM
- GI50 (SF-539 CNS): 24.6 nM
- TGI (SF-539 CNS): 66.5 nM
- GI50 (HL-60(TB) leukemia): 23.6 nM
- TGI (HL-60(TB) leukemia): 62.2 nM
- GI50 (CAKI-1 renal): 50.6 nM
- TGI (CAKI-1 renal): 47300 nM
- GI50 (NCI-H226 lung): 512 nM
- TGI (NCI-H226 lung): > 100000 nM
- GI50 (BT-549 breast): 87.3 nM
- TGI (BT-549 breast): 4290 nM
- GI50 (OVCAR-5 ovarian): 65.9 nM
- TGI (OVCAR-5 ovarian): > 100000 nM
- GI50 (UO-31 renal): 64.4 nM
- TGI (UO-31 renal): 66700 nM
- GI50 (SF-268 CNS): 75.6 nM
- TGI (SF-268 CNS): 33300 nM
- GI50 (IGROV1 ovarian): 59.1 nM
- TGI (IGROV1 ovarian): 20400 nM
- GI50 (HOP-92 NSCLC): 148 nM
- TGI (HOP-92 NSCLC): 19700 nM
- GI50 (SR leukemia): 28.5 nM
- TGI (SR leukemia): > 42000 nM
- GI50 (NCI-H460 lung): 36.3 nM
- TGI (NCI-H460 lung): > 33700 nM
- GI50 (A498 renal): 21 nM
- TGI (A498 renal): 83.2 nM
- GI50 (CCRF-CEM leukemia): 32.5 nM
- GI50 (COLO 205 colon): 33.1 nM
- TGI (COLO 205 colon): 160 nM
- GI50 (NCI-H23 lung): 42.2 nM
- TGI (NCI-H23 lung): > 32100 nM
- GI50 (KM12 colon): 24.6 nM
- TGI (KM12 colon): 9790 nM
- GI50 (PC-3 prostate): 36.7 nM
- TGI (PC-3 prostate): > 100000 nM
- GI50 (MDA-MB-231 breast): 74 nM
- TGI (MDA-MB-231 breast): > 100000 nM
- GI50 (SW-620 colon): 38.7 nM
- TGI (SW-620 colon): > 100000 nM
- GI50 (RPMI-8226 leukemia): 35.2 nM
- TGI (RPMI-8226 leukemia): 7690 nM
- GI50 (A549 NSCLC): 44.7 nM
- TGI (A549 NSCLC): > 100000 nM
- GI50 (HCT-116 colon): 41.7 nM
- TGI (HCT-116 colon): 42600 nM
- GI50 (OVCAR-8 ovarian): 45.9 nM
- TGI (OVCAR-8 ovarian): > 100000 nM
- GI50 (UACC-62 melanoma): 67.2 nM
- TGI (UACC-62 melanoma): > 100000 nM
- GI50 (SK-OV-3 ovarian): 41.7 nM
- TGI (SK-OV-3 ovarian): 2200 nM
- GI50 (SF-295 CNS): 24.8 nM
- TGI (SF-295 CNS): > 100000 nM
- GI50 (MOLT-4 leukemia): 48.7 nM
- GI50 (SN12C renal): 71.6 nM
- TGI (SN12C renal): > 57400 nM
